# From US20040110771A1, “7-(r)-aminotriazolopyrimidines, the production thereof and use of the same for combatting phytopathogenic fungi” (priority 2000, published 2004)
# Key:
# Type in all cases: in vivo
# [1] = system: Pyrenophora teres; experiment: Activity against net blotch of barley caused by Pyrenophora teres; conditions: barley seedlings "Igri", inoculated 24 h after spraying, 6 days
# Method: (§1) The active compounds were prepared separately or jointly as a 10% strength emulsion in a mixture of 70% by weight of cyclohexanone, 20% by weight of Nekanil® LN (Lutensol® AP6, wetting agent having emulsifying and dispersing action based on ethoxylated alkylphenols) and 10% by weight of Wettol® EM (nonionic emulsifier based on ethoxylated castor oil) and diluted with water to the desired concentration.
# Leaves of potted barley seedlings of the cultivar “Igri” were sprayed to runoff point with an aqueous preparation of active compound which had been prepared from a stock solution made of 10% of active compound, 85% of cyclohexanone and 5% of emulsifier and were inoculated 24 hours after the spray coating had dried on with an aqueous spore suspension of Pyrenophora teres, the net blotch pathogen. The test plants were then placed in a greenhouse at 20-24° C. and 95-100% relative atmospheric humidity. After 6 days, the extent of the development of the disease was determined visually in % infection of the entire leaf area.
# [2] = system: Blumeria graminis forma specialis tritici; experiment: Activity against mildew of wheat caused by Blumeria graminis forma specialis tritici; conditions: wheat seedlings "Kanzler", dusted with spores 24 h after spraying, 7 days
# Method: as §1
# Leaves of potted wheat seedlings of the cultivar “Kanzler” were sprayed to runoff point with an aqueous preparation of active compound which had been prepared from a stock solution made of 10% of active compound, 85% of cyclohexanone and 5% of emulsifier and were dusted 24 hours after the spray coating had dried on with spores of mildew of wheat (Blumeria graminis forma specialis tritici). The test plants were then placed in a greenhouse at 20-24° C. and 60-90% relative atmospheric humidity. After 7 days, the extent of the mildew development was determined visually in % infection of the entire leaf area.
# [3] = system: Puccinia recondita; experiment: Curative activity against brown rust of wheat caused by Puccinia recondita; conditions: curative spray 24 h after inoculation, wheat seedlings "Kanzler", 7 days
# Method: as §1
# Leaves of potted wheat seedlings of the cultivar “Kanzler” were dusted with spores of brown rust (Puccinia recondita). The pots were then placed in a chamber with high atmospheric humidity (90 to 95%) at 20-22° C. for 24 hours. During this period, the spores germinated and the germinal tubes penetrated into the leaf tissue. The following day, the infected plants were sprayed to runoff point with an aqueous preparation of active compound which had been prepared from a stock solution made of 10% of active compound, 85% of cyclohexanone and 5% of emulsifier. After the spray coating had dried on, the test plants were cultivated in a greenhouse at 20-22° C. and 65-70% relative atmospheric humidity for 7 days. The extent of the rust fungus development on the leaves was then determined.
Structure (SMILES),% infection of the leaves after application of an aqueous preparation comprising . . . ppm of active compound ([1]; 16 ppm) [%],% infection of the leaves after application of an aqueous preparation comprising . . . ppm of active compound ([1]; 63 ppm) [%],% infection of the leaves after application of an aqueous preparation comprising . . . ppm of active compound ([1]; 250 ppm) [%],% infection of the leaves after application of an aqueous preparation comprising . . . ppm of active compound ([2]; 16 ppm) [%],% infection of the leaves after application of an aqueous preparation comprising . . . ppm of active compound ([2]; 63 ppm) [%],% infection of the leaves after application of an aqueous preparation comprising . . . ppm of active compound ([2]; 250 ppm) [%],% infection of the leaves after application of an aqueous preparation comprising . . . ppm of active compound ([3]; 16 ppm) [%],% infection of the leaves after application of an aqueous preparation comprising . . . ppm of active compound ([3]; 63 ppm) [%],% infection of the leaves after application of an aqueous preparation comprising . . . ppm of active compound ([3]; 250 ppm) [%]
CCCCC[C@H](C)Nc1c(-c2c(F)cc(F)cc2F)c(Cl)nc2ncnn12 [comparison (S)-amine of I.-28],100,100,100,,,,,,
Cc1cc(F)ccc1-c1c(Cl)nc2ncnn2c1NC(C)C(C)(C)C [comparison (S)-amine of I.-24],,,,60,60,15,,,
C[C@H](Nc1c(-c2c(F)cccc2F)c(Cl)nc2ncnn12)C(C)(C)C [comparison (S)-amine of I.-6],60,5,,,90,90,,,
CCC(C)Nc1c(-c2ccccc2Cl)c(Cl)nc2ncnn12 [comparison (S)-amine of I.-42],,,,,,,100,60,15
CC[C@@H](C)Nc1c(-c2ccccc2Cl)c(Cl)nc2ncnn12 [I.-42],,,,,,,30,20,5
CC(Nc1c(-c2c(F)cccc2Cl)c(Cl)nc2ncnn12)C(C)(C)C [comparison (S)-amine of I.-3],,,,,,,,,100
C[C@H](Nc1c(-c2c(Cl)cccc2Cl)c(Cl)nc2ncnn12)C(C)(C)C [comparison (S)-amine of I.-9],100,100,100,,,,,,
Cc1cccc(F)c1-c1c(Cl)nc2ncnn2c1NC(C)C(C)(C)C [comparison (S)-amine of I.-12a],100,100,100,100,100,100,,,
"Cc1cccc(F)c1-c1c(Cl)nc2ncnn2c1N[C@H](C)C(C)(C)C (single isomer, unassigned) [I.-12b]",7,7,0,60,60,60,,,
Cc1cccc(F)c1-c1c(Cl)nc2ncnn2c1NC(C)C(C)(C)C [comparison (S)-amine of I.-12b],100,100,100,100,100,100,,,
C[C@H](Nc1c(-c2c(F)cc(F)cc2F)c(Cl)nc2ncnn12)C(C)(C)C [comparison (S)-amine of I.-15],,,,90,80,40,100,100,100
"Cc1cccc(F)c1-c1c(Cl)nc2ncnn2c1NC(C)C(C)(C)C (single isomer, unassigned) [I.-12a]",0,0,0,7,7,7,,,
C[C@@H](Nc1c(-c2c(F)cccc2Cl)c(Cl)nc2ncnn12)C(C)(C)C [I.-3],,,,,,,,,20
CC(Nc1c(-c2c(Cl)cccc2Cl)c(Cl)nc2ncnn12)C(C)(C)C (stereo not shown) [I.-9],0,0,0,,,,,,
CC(Nc1c(-c2c(F)cccc2F)c(Cl)nc2ncnn12)C(C)(C)C (stereo not shown) [I.-6],0,0,,,50,40,,,
Cc1cc(F)ccc1-c1c(Cl)nc2ncnn2c1NC(C)C(C)(C)C (stereo not shown) [I.-24],,,,10,5,3,,,
C[C@H](Nc1c(-c2c(F)cc(F)cc2F)c(Cl)nc2ncnn12)C1CCCCC1 [comparison (S)-amine of I.-31],100,80,80,50,50,15,,,
C[C@@H](Nc1c(-c2c(F)cc(F)cc2F)c(Cl)nc2ncnn12)C1CCCCC1 [I.-31],40,3,0,15,7,5,,,
CCCCCC(C)Nc1c(-c2c(F)cc(F)cc2F)c(Cl)nc2ncnn12 (stereo not shown) [I.-28],90,40,20,,,,,,
